The test addresses MAP4K-1 enzyme (Homo sapiens, UniProt Q92918). As to the kind of experiment: FRET one step binding assay (tracer displacement). The conditions noted are these: for inhibition at 1 µM / % Inhibition at 1 μM: 1 μM compound; for inhibition at 10 µM / % Inhibition at 10 μM: 10 μM compound. As to the method: This is a one step binding assay based on the binding and displacement of the labeled tracer, where compound addition is followed by addition of the anti-GST tagged europium (Eu) as the donor and Alexa Fluor-labeled tracer as the acceptor.
Test compounds were dissolved in dimethylsulfoxide (DMSO) to prepare 10.0 mM stock solutions and diluted to the desired concentration. The final concentration of DMSO in the reaction was 3% (v/v). The assay mixture was prepared by mixing 2 nM of the Eu-Anti-GST Antibody and 5 nM MAP4K-1 enzyme in the Kinase buffer containing 50 mM HEPES (pH 7.5), 10 mM MgCl2, 1 mM EGTA, 0.01% Brij-35 with or without the desired concentration of the compound. The reaction was incubated on ice for 15 min. […] After shaking for 5 min the reaction was further incubated for 1 hour at room temperature and this was kept at 4° C. and read on ARTEMIS reader as per the kit instructions (Thermo). […] The activity was calculated as percent of control reaction. IC50 values were calculated from dose response curve by nonlinear regression analysis using GraphPad Prism software.

Structures can show the parent of a compound that is named as a salt. Where two headings read alike, the source gives them in different places.

The inhibition is the change of the read-out against control, counted positive when it falls. High values mean strong suppression, low ones little suppression. As a reminder, the IC50 is the concentration needed to halve the response being measured. A word on the % Inhibition: it is how much of the control response was suppressed. A high value points to strong suppression.

MAP4K-1 enzyme, sequence (Q92918 whole entry): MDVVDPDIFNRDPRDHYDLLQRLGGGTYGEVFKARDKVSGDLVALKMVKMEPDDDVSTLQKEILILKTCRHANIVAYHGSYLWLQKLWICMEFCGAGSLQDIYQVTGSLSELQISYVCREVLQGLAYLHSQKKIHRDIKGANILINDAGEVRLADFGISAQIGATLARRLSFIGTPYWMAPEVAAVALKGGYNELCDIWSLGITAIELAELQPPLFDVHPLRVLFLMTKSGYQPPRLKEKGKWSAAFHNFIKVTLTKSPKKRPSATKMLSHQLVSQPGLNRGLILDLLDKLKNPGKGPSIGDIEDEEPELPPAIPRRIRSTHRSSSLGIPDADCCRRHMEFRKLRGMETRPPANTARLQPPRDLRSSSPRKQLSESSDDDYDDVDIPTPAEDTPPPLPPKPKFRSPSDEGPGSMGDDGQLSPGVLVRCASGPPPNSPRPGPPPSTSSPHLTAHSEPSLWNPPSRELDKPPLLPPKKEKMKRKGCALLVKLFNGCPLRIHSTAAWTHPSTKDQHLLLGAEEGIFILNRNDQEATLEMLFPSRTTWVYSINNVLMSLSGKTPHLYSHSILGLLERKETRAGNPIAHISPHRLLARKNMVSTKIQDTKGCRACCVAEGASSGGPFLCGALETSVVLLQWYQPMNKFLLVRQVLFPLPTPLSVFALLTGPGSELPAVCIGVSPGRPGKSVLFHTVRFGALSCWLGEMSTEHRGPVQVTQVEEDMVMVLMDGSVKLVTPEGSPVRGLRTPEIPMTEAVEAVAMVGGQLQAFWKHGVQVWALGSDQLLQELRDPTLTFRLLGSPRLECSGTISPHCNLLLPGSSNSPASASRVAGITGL

With `COc1cc2c(cc1Nc1ncc(Cl)c(Nc3ccc(OS(=O)(=O)F)cc3P(C)(C)=O)n1)CN(C)C(C)(C)C2` [Example 25, 4-((5-Chloro-2-((6-methoxy-2,3,3-trimethyl-1,2,3,4-tetrahydroisoquinolin-7-yl)amino)pyrimidin-4-yl)amino)-3-(dimethylphosphoryl)phenyl sulfofluoridate dihydrochloride], testing at 1 µM gave an inhibition of 85.9% and the inhibition at 10 µM came to 90.7%. The compound also came in with an IC50 (IC50 (nM)) of under 50 nM.
In turn, `COc1cc2c(cc1Nc1ncc(Cl)c(Nc3ncc(OS(=O)(=O)F)cc3P(C)(C)=O)n1)C(C)N(C)CC2` (single isomer, unassigned; isomer 1) [Example 23, 6-((5-Chloro-2-((6-methoxy-1,2-dimethyl-1,2,3,4-tetrahydroisoquinolin-7-yl)amino)pyrimidin-4-yl)amino)-5-(dimethylphosphory)pyridin-3-yl sulfofluoridate dihyrochloride (Isomer 1)] came in with an inhibition at 1 µM of 86.1% and an inhibition at 10 µM of 89.6%. For the setting “IC50 (nM)”, this compound returned an IC50 of 50 to 100 nM.
`CN1CCc2cc(F)c(Nc3ncc(Cl)c(Nc4ccc(OS(=O)(=O)F)cc4P(C)(C)=O)n3)cc2C1` [Example 26, 4-((5-Chloro-2-((6-fluoro-2-methyl-1,2,3,4-tetrahydroisoquinolin-7-yl)amino)pyrimidin-4-yl)amino)-3-(dimethylphosphoryl)phenyl sulfofluoridate dihydrochloride] returned an inhibition at 1 µM of 75.8% and an inhibition at 10 µM of 76.5%. For the setting “IC50 (nM)”, this compound had an IC50 of under 50 nM.
For `Cl.Cl.[2H]C([2H])([2H])Oc1cc2c(cc1Nc1ncc(Cl)c(Nc3ccc(OS(=O)(=O)F)cc3P(C)(C)=O)n1)CN(C)CC2` [Example 5, 4-((5-Chloro-2-((6-(methoxy-d3)-2-methyl-1,2,3,4-tetrahydroisoquinolin-7-yl)amino)pyrimidin-4-yl)amino)-3-(dimethylphosphoryl)phenyl sulfurofluoridate dihydrochloride], at 1 µM the inhibition was 78.1% and testing at 10 µM gave an inhibition of 82.5%. Besides, the IC50 (IC50 (nM)) was under 50 nM.
As to `COc1cc2c(cc1Nc1ncc(Cl)c(Nc3ccc(S(C)(=N)=O)cc3P(C)(C)=O)n1)CN(C)CC2` (stereo not drawn) [Example 58, (2-((5-Chloro-2-((6-methoxy-2-methyl-1,2,3,4-tetrahydroisoquinolin-7-yl)amino)pyrimidin-4-yl)amino)-5-(S-methylsulfonimidoyl)phenyl)dimethylphosphine oxide], at 1 µM the inhibition was 96.6% and testing at 10 µM gave an inhibition of 96.4%. Moreover, where the note is “read-out: IC50”, the IC50 was under 50 nM.
`COc1cc2c(cc1Nc1ncc(Cl)c(Nc3ccc(NC(=O)CCl)cc3P(C)(C)=O)n1)CN(C)CC2` [Example 56, 2-Chloro-N-(4-((5-chloro-2-((6-methoxy-2-methyl-1,2,3,4-tetrahydroisoquinolin-7-yl)amino)pyrimidin-4-yl)amino)-3-(dimethylphosphoryl)phenyl)acetamide hydrochloride] yielded an inhibition at 1 µM of 88.7% and an inhibition at 10 µM of 88.2%. Besides, the IC50 (read-out: IC50) was under 50 nM.
As to `COc1cc2c(cc1Nc1ncc(Cl)c(Nc3cnc(OS(=O)(=O)F)cc3P(C)(C)=O)n1)CN(C)CC2` [Example 37, 5-((5-Chloro-2-((6-methoxy-2-methyl-1,2,3,4-tetrahydroisoquinolin-7-yl)amino)pyrimidin-4-yl)amino)-4-(dimethylphosphoryl)pyridin-2-ylsulfofluoridate], the “% Inhibition at 1 μM” value was 84.45% and the “% Inhibition at 10 μM” value turned out to be 84.73%. Further, for the setting “read-out: IC50”, the IC50 was under 50 nM.
In turn, `COc1cc2c(cc1Nc1ncc(Cl)c(Nc3cc(OS(=O)(=O)F)ccc3P(C)(C)=O)n1)C(C)N(C)CC2` (single isomer, unassigned; isomer 2) [Example 32, 3-((5-Chloro-2-((6-methoxy-1,2-dimethyl-1,2,3,4-tetrahydroisoquinolin-7-yl)amino)pyrimidin-4-yl)amino)-4-(dimethylphosphoryl)phenyl sulfofluoridate dihydrochloride (Isomer 2)] displayed a 50% inhibitory concentration (IC50) of under 50 nM. Besides, the “% Inhibition at 1 μM” value (1 µM) was 84.51%. In addition, under “10 µM”, the “% Inhibition at 10 μM” value was 89.25%.
As for `[2H]C([2H])([2H])Oc1cc2c(cc1Nc1ncc(Cl)c(Nc3ccc(OS(=O)(=O)F)cc3P(C)(C)=O)n1)C([2H])([2H])NCC2` [Example 40, 4-((5-Chloro-2-((6-methoxy-d3-1,2,3,4-tetrahydroisoquinolin-7-yl-1,1-d2)amino)pyrimidin-4-yl)amino)-3-(dimethylphosphoryl)phenyl sulfofluoridate dihydrochloride], the inhibition at 1 µM came out at 83.3% and at 10 µM the inhibition was 84%. The IC50 (IC50 (nM)) is under 50 nM.
With `COc1cc2c(cc1Nc1ncc(Cl)c(Nc3ccc(OS(=O)(=O)F)cc3P(C)(C)=O)n1)CN(CC(F)F)CC2` [Example 8, 4-((5-Chloro-2-((2-(2,2-difluoroethyl)-6-methoxy-1,2,3,4-tetrahydroisoquinolin-7-yl)amino)pyrimidin-4-yl)amino)-3-(dimethylphosphoryl)phenyl sulfurofluoridate dihydrochloride], the inhibition at 1 µM was 63.7% and the inhibition at 10 µM is 80%. For the setting “IC50 (nM)”, this compound gave an IC50 of under 50 nM.
The corresponding values for `COc1cc2c(cc1Nc1ncc(Cl)c(Nc3ccc(OS(=O)(=O)F)cc3P(C)(C)=O)n1)CN(CCF)CC2` [Example 13, 4-((5-Chloro-2-((2-(2-fluoroethyl)-6-methoxy-1,2,3,4-tetrahydroisoquinolin-7-yl)amino)pyrimidin-4-yl)amino)-3-(dimethylphos-phoryl)phenylsulfofluoridate dihydrochloride] are 79.7%, 81% and under 50 nM.
With `COc1cc2c(cc1Nc1ncc(Cl)c(Nc3ccc(N(C)S(=O)(=O)F)cc3P(C)(C)=O)n1)CN(C)CC2` [Example 43, 4-((5-Chloro-2-((6-methoxy-2-methyl-1,2,3,4-tetrahydroisoquinolin-7-yl)amino)pyrimidin-4-yl)amino)-3-(dimethylphosphoryl)phenyl)(methyl)sulfamoylfluoride dihydrochloride], 1 µM produced 80% inhibition and the inhibition at 10 µM was determined as 80.5%. The compound also had a concentration for half-maximal inhibition (IC50) (IC50 (nM)) of under 50 nM.
With `COc1cc2c(cc1Nc1ncc(Cl)c(Nc3ccc(OS(=O)(=O)F)cc3P(C)(C)=O)n1)COCC2` [Example 28, 4-((5-Chloro-2-((6-methoxyisochroman-7-yl)amino)pyrimidin-4-yl)amino)-3-(dimethylphosphoryl)phenyl sulfofluoridate hydrochloride], the inhibition at 1 µM is 69.7% and testing at 10 µM gave an inhibition of 75.9%. Under “IC50 (nM)”, this compound showed an IC50 of under 50 nM.
Consider `COc1cc2c(cc1Nc1ncc(Cl)c(Nc3ccc(OS(=O)(=O)F)cc3P(C)(C)=O)n1)CN(C1COC1)CC2` [Example 16, 4-((5-Chloro-2-((6-methoxy-2-(oxetan-3-yl)-1,2,3,4-tetrahydroisoquinolin-7-yl)amino)pyrimidin-4-yl)amino)-3-(dimethylphosphoryl)phenyl sulfurofluoridate dihydrochloride], for which testing at 1 µM gave an inhibition of 87.3% and at 10 µM the inhibition was 86%. In addition, the IC50 (IC50 (nM)) was under 50 nM.
In the case of `[2H]C([2H])([2H])Oc1cc2c(cc1Nc1ncc(Cl)c(Nc3ccc(OS(=O)(=O)F)cc3P(C)(C)=O)n1)CNCC2` [Example 39, 4-((5-Chloro-2-((6-methoxy-d3-1,2,3,4-tetrahydroisoquinolin-7-yl)amino)pyrimidin-4-yl)amino)-3-(dimethylphosphoryl)phenyl sulfofluoridate dihydrochloride], the inhibition at 1 µM amounted to 75.1% and at 10 µM the inhibition was 87%. For the same compound, the IC50 (IC50 (nM)) was under 50 nM.
Take `COc1cc2c(cc1Nc1ncc(Cl)c(Nc3ccc(N(C)S(=O)(=O)F)cc3P(C)(C)=O)n1)C(C)N(C)CC2` (racemic) [Example 44, ±(4-((5-Chloro-2-((6-methoxy-1,2-dimethyl-1,2,3,4-tetrahydroisoquinolin-7-yl)amino)pyrimidin-4-yl)amino)-3-dimethylphosphoryl)phenyl) (methyl)sulfamoylfluoride dihydrochloride]: testing at 1 µM gave an inhibition of 81.6% and 10 µM produced 79.6% inhibition. Also, the IC50 (IC50 (nM)) is under 50 nM.
In the case of `COc1cc2c(cc1Nc1ncc(Cl)c(Nc3ccc(OS(=O)(=O)F)cc3P(C)(C)=O)n1)C(C)N(C)CC2` (racemic) [Example 12, ±4-((5-chloro-2-((6-methoxy-1,2-dimethyl-1,2,3,4-tetrahydroisoquinolin-7-yl)amino)pyrimidin-4-yl)amino)-3-(dimethylphos-phoryl)phenylsulfurofluoridate dihydrochloride], at 1 µM the inhibition was 87.5% and the inhibition at 10 µM came to 85.9%. Besides, the IC50 (IC50 (nM)) was under 50 nM.
Consider `COc1cc2c(cc1Nc1ncc(Cl)c(Nc3ccc(N(C)C(=O)C(F)F)cc3P(C)(C)=O)n1)CN(C)CC2` [Example 53, N-(4-((5-Chloro-2-((6-methoxy-2-methyl-1,2,3,4-tetrahydroisoquinolin-7-yl)amino)pyrimidin-4-yl)amino)-3-(dimethylphosphoryl)phenyl)-2,2-difluoro-N-methylacetamide], for which 1 µM produced 82.4% inhibition and 10 µM produced 90% inhibition. In addition, for the setting “read-out: IC50”, the IC50 was 50 to 100 nM.

The record behind these values is US12577267B2, “Pyrimidine compounds for use as MAP4K1 inhibitors” (GLENMARK SPECIALITY S.A., priority 2021, dated 2026).
